Reference: the supplement of paper PMC11451515

System: NOMO1
Test: cell viability relative to DMSO control; higher = less cytotoxic
Conditions: 48 h
Method in brief: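 Three leukemia lines were tested: NOMO1 and SEM at 500 cells/well and P12-Ichikawa at 1000 cells/well. Each was adapted for at least four passages in each medium and seeded in 5 μl in 1536-well plates, and library compounds in DMSO were pin-dosed from 47 μM to 0.79 nM in 11 threefold steps. After 48 h at 37°C, CellTiter-Glo One luminescence was read. Viability is a percentage relative to DMSO wells on each plate, with cell-free wells as background.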

[1] = HPLM + 10% dialyzed FBS, 0.000781 µM
[2] = HPLM + 10% dialyzed FBS, 0.00234 µM
[3] = HPLM + 10% dialyzed FBS, 0.00702 µM
[4] = HPLM + 10% dialyzed FBS, 0.0211 µM
[5] = HPLM + 10% dialyzed FBS, 0.0632 µM
[6] = HPLM + 10% dialyzed FBS, 0.19 µM
[7] = HPLM + 10% dialyzed FBS, 0.569 µM
[8] = HPLM + 10% dialyzed FBS, 1.71 µM
[9] = HPLM + 10% dialyzed FBS, 5.12 µM
[10] = HPLM + 10% dialyzed FBS, 15.4 µM
[11] = HPLM + 10% dialyzed FBS, 46.1 µM
[12] = RPMI 5 mM glucose + 10% dialyzed FBS, 0.000781 µM
[13] = RPMI 5 mM glucose + 10% dialyzed FBS, 0.00234 µM
[14] = RPMI 5 mM glucose + 10% dialyzed FBS, 0.00702 µM
[15] = RPMI 5 mM glucose + 10% dialyzed FBS, 0.0211 µM
[16] = RPMI 5 mM glucose + 10% dialyzed FBS, 0.0632 µM
[17] = RPMI 5 mM glucose + 10% dialyzed FBS, 0.19 µM
[18] = RPMI 5 mM glucose + 10% dialyzed FBS, 0.569 µM
[19] = RPMI 5 mM glucose + 10% dialyzed FBS, 1.71 µM
[20] = RPMI 5 mM glucose + 10% dialyzed FBS, 5.12 µM
[21] = RPMI 5 mM glucose + 10% dialyzed FBS, 15.4 µM
[22] = RPMI 5 mM glucose + 10% dialyzed FBS, 46.1 µM

| SMILES | cell viability [1] [%] | cell viability [2] [%] | cell viability [3] [%] | cell viability [4] [%] | cell viability [5] [%] | cell viability [6] [%] | cell viability [7] [%] | cell viability [8] [%] | cell viability [9] [%] | cell viability [10] [%] | cell viability [11] [%] | cell viability (RPMI 5 mM glucose + 10% FBS, 0.000781 µM) [%] | cell viability (RPMI 5 mM glucose + 10% FBS, 0.00234 µM) [%] | cell viability (RPMI 5 mM glucose + 10% FBS, 0.00702 µM) [%] | cell viability (RPMI 5 mM glucose + 10% FBS, 0.0211 µM) [%] | cell viability (RPMI 5 mM glucose + 10% FBS, 0.0632 µM) [%] | cell viability (RPMI 5 mM glucose + 10% FBS, 0.19 µM) [%] | cell viability (RPMI 5 mM glucose + 10% FBS, 0.569 µM) [%] | cell viability (RPMI 5 mM glucose + 10% FBS, 1.71 µM) [%] | cell viability (RPMI 5 mM glucose + 10% FBS, 5.12 µM) [%] | cell viability (RPMI 5 mM glucose + 10% FBS, 15.4 µM) [%] | cell viability (RPMI 5 mM glucose + 10% FBS, 46.1 µM) [%] | cell viability [12] [%] | cell viability [13] [%] | cell viability [14] [%] | cell viability [15] [%] | cell viability [16] [%] | cell viability [17] [%] | cell viability [18] [%] | cell viability [19] [%] | cell viability [20] [%] | cell viability [21] [%] | cell viability [22] [%] |
| --- | --- | --- | --- | --- | --- | --- | --- | --- | --- | --- | --- | --- | --- | --- | --- | --- | --- | --- | --- | --- | --- | --- | --- | --- | --- | --- | --- | --- | --- | --- | --- | --- | --- |
| C[C@H]1CN(C[C@@H](C)O1)CC(=O)NC2=CC=C3SC4=C(CC3=C2)C=CC=C4\C5=C\C(=O)\C=C(/O5)N6CCOCC6 | 100 | 125 | 108 | 123 | 126 | 128 | 118 | 89.2 | 72.5 | 39.2 | 35 | 93.4 | 125 | 121 | 118 | 107 | 106 | 98.7 | 106 | 96.8 | 64.2 | 55.8 | 85 | 108 | 107 | 106 | 104 | 113 | 100 | 97.3 | 85.5 | 62.7 | 45.2 |
| CO[C@H]1C[C@@H]2CC[C@@H](C)[C@@](O)(O2)C(=O)C(=O)N2CCCC[C@H]2C(=O)O[C@H]([C@H](C)C[C@@H]2CC[C@@H](OP(C)(C)=O)[C@H](OC)C2)CC(=O)[C@H](C)/C=C(\C)[C@@H](O)[C@@H](OC)C(=O)[C@H](C)C[C@H](C)/C=C/C=C/C=C/1C | 110 | 114 | 109 | 116 | 106 | 113 | 102 | 105 | 96.7 | 97 | 94.5 |  |  |  |  |  |  |  |  |  |  |  | 122 | 113 | 118 | 115 | 117 | 121 | 120 | 125 | 124 | 103 | 120 |
| N[C@@H](C(=O)N[C@H]1[C@H]2SC\C(=C(/N2C1=O)C(O)=O)Cl)C3=CC=CC=C3 | 123 | 124 | 125 | 136 | 150 | 119 | 126 | 108 | 134 | 145 | 135 |  |  |  |  |  |  |  |  |  |  |  |  |  |  |  |  |  |  |  |  |  |  |
